Test results from patent US5405958A, “Photochromic spiro(indoline)naphthoxazine compounds” (Transitions Optical, Inc., priority 1992, dated 1995).

Assays:
Type in all cases: physicochemical
[1] = Bleach rate of imbibed polymer test squares; conditions: for BLEACH RATE T 1/2: 25.7±0.5° C., after removal of activating light
Protocol: (§1) These compounds were imbibed by thermal transfer into test squares of a polymeric matrix prepared from a diethylene glycol bis(allyl carbonate) composition by the following procedure: Each photochromic compound was dissolved in toluene to form a 4 weight percent solution of the compound. A piece of No. 4 Whatman filter paper was saturated with the toluene solution of the photochromic compound and allowed to air dry. The dried filter paper was placed on one side of the polymer test square, which measured 1/8 inch (0.3 centimeter)×2 inch (5.1 centimeters)×2 inch (5.1 centimeters). A piece of untreated filter paper was placed on the other side of the polymer test square and the resulting sandwich placed between two plates of flat aluminum metal plates. […] The imbibed test squares were washed with acetone after removal from the oven.
(§2) The imbibed polymer test squares were tested for photochromic response rates on an optical bench. The samples were illuminated by a 150 watt Xenon lamp fitted with a copper sulfate bath and a neutral density filter at an intensity of about one sun. A second beam of light provided by a filtered tungsten lamp arranged to pass through the sample area exposed by the UV source was used to monitor changes in transmission of the sample over different wavelength ranges in the visible region of the spectrum. The intensity of the monitoring beam after passing through the sample was measured by means of an IL-1500 radiometer equipped with a silicon detector head and matching filters.

[2] = Lambda max in imbibed polymer matrix test squares; conditions: for LAMBDA MAX: in polymer matrix test squares of diethylene glycol bis(allyl carbonate)
Protocol: as §1
(§3) The Δ OD/min., which represents the sensitivity of the photochromic compound's response to UV light, was measured using photopic filters on the silicon detector. The response of the filtered detector approximated the luminosity curve. The Δ OD was measured over the first five (5) seconds of UV exposure, then expressed on a per minute basis. The saturation optical density (OD) was taken under identical conditions as the Δ OD/min., except UV exposure was continued for 20 minutes. The lambda max reported in Table 2 is the wavelength in the ultraviolet range closest to the visible spectrum or in the threshold range, i.e., 390 to 410 nanometers, of the visible spectrum at which the maximum absorption and activation of the photochromic compound occurs in the polymer matrix test squares.

[3] = Photochromic response (sensitivity, saturation optical density) of imbibed polymer test squares on optical bench; conditions: for Δ OD @ SATURATION: UV exposure continued for 20 minutes; for Δ OD/min. SENSITIVITY: first five (5) seconds of UV exposure, expressed per minute, photopic filters, about one sun
Protocol: as §1, §2, §3

[4] = Colour change of diethylene glycol dimethyl ether solution on ultraviolet irradiation
[5] = UV spectrophotometer lambda max in diethylene glycol dimethyl ether solution; conditions: for lambda max compared with compound samples A, B and D (in words): Table 1 values vs. samples A, B and D of Table 2; for LAMBDA MAX: in diethylene glycol dimethyl ether, approximately 0.5 milligrams per milliliter
Protocol: The principal products of Examples 1, 2 and 3 were dissolved in diethylene glycol dimethyl ether. The concentrations of the resulting solutions were approximately 0.5 milligrams per milliliter. Each solution was tested in a UV spectrophotometer to determine its lambda max. The lambda max reported in Table 1 is the wavelength in the ultraviolet range closest to the visible spectrum or in the threshold range, i.e., 390 to 410 nanometers, of the visible spectrum, at which the maximum absorption and activation of the photochromic compound occurs in diethylene glycol dimethyl ether.

Row | Compound | BLEACH RATE T 1/2 [1] [min] | LAMBDA MAX [2] | Δ OD @ SATURATION [3] | Δ OD/min. SENSITIVITY [3] | colour of solution after the ultraviolet light was removed [4] | colour of solution before irradiation [4] | colour of solution when irradiated with ultraviolet light [4] | lambda max compared with compound samples A, B and D (in words) [5] | LAMBDA MAX [5] | bleach rate (in words) ([1]; polymer test squares) | absorption maxima in the UV spectrum compared with compounds A, B and D (in words) ([2]; polymer test squares) | optical density at saturation compared with the other compounds (in words) ([3]; polymer test squares) | sensitivity compared with the other compounds (in words) ([3]; polymer test squares)
1 | 1propyl-3,3,4,5(or 3,3,5,6)tetramethyl-spiro[indoline2,3[3H]naphth[2,1b][1,4]oxazine] | 0.783 | 346 | 0.11 Δ OD | 0.21 Δ OD/min. | – | – | – | – | – | – | – | – | –
2 | CCCN1c2cc(C)c(C)cc2C(C)(C)C12C=Nc1c(ccc3ccc(OC)cc13)O2 (centres unmarked) [A, 1propyl-3,3,5,6-tetramethyl-9methoxy-spiro[indoline2,3[3H]naphth[2,1b][1,]oxazine]] | 1.17 | 336 | 0.11 Δ OD | 0.15 Δ OD/min. | – | – | – | – | – | – | – | – | –
3 | CCCN1c2cc(C)c(C)cc2C(C)(C)C12C=Nc1c(ccc3ncccc13)O2 (centres unmarked) [B, 1propyl-3,3,5,6-tetramethyl-spiro[indoline2,3[3H]pyrido[3,2f][1,4]benzoxaine]] | 1.15 | 350 | 0.36 Δ OD | 0.44 Δ OD/min. | – | – | – | – | – | – | – | – | –
4 | 1,3,3,4,5(or 1,3,3,5,6,)-pentamethyl-9'-methoxycarbonyl-8'-methoxy-spiro[indoline-2,3'-[3H]naphth[2,1-b][1,41oxazine] [Example 2] | – | – | – | – | returned to its original colorless condition | colorless | changed to blue | relatively high lambda max values | 383 | – | – | – | –
5 | 1-propyl-3,3,4,5(or 3,3,5,6)-tetramethyl-9'-methoxycarbonyl-8'-acetoxy-spiro[indoline-2,3'-[3H]naphth[2,1-b][1,4]oxazine] [Compound C] | 2.27 | 374 | 0.42 Δ OD | 0.46 Δ OD/min. | – | – | – | – | – | acceptable bleach rate | unexpectedly higher than compounds A, B and D | higher optical density at saturation | improved sensitivity
6 | 1,3,3,4,5(or 1,3,3,5,6,)-pentamethyl-9'-methoxycarbonyl-8'-hydroxy-spiro[indoline-2,3'-[3H]naphth[2,1-b][1,41oxazine] [Example 1] | – | – | – | – | returned to its original slightly colored condition | slight yellow cast | changed to green | relatively high lambda max values | 403 | – | – | – | –
7 | 1,3,3,4,5(or 1,3,3,5,6,)-pentamethyl-9'-methoxy-carbonyl-8'-acetoxy-spiro[indoline-2,3'-[3H]naphth[2,1-b][1,4]oxazine] [Example 3] | – | – | – | – | returned to its original colorless condition | colorless | changed to blue | relatively high lambda max values | 374 | – | – | – | –
